# Data published in publication PMC6422671 (British Journal of Clinical Pharmacology, 2019).
# Test: Clinical laboratory findings: chemistry; data mean (standard deviation)
# Type: in vivo, healthy men
# Source text: Data are mean (standard deviation).
structure (smiles),measurement,setting,value
C[C@@H](N)c1cc(Cl)ccc1Cn1c(=S)[nH]c(=O)c2[nH]ccc21 [AZD4831],ALP,"5 mg fasted, 24 h",0.997 (0.210) µkat L^–1
same,ALT,"5 mg fasted, 24 h",0.397 (0.159) µkat L^–1
same,AST,"5 mg fasted, 24 h",0.370 (0.103) µkat L^–1
same,Albumin,"5 mg fasted, 24 h",42.6 (2.4) g L^–1
same,Bilirubin,"5 mg fasted, 24 h",12.3 (2.6) µmol L^–1
same,CRP,"5 mg fasted, 24 h",0.38 (0.22) mg L^–1
same,Calcium,"5 mg fasted, 24 h",2.36 (0.04) mmol L^–1
same,Creatinine,"5 mg fasted, 24 h",82.2 (10.3) µmol L^–1
same,GGT,"5 mg fasted, 24 h",0.288 (0.103) µkat L^–1
same,Glucose,"5 mg fasted, 24 h",4.69 (0.32) mmol L^–1
same,Phosphate,"5 mg fasted, 24 h",1.12 (0.09) mmol L^–1
same,Potassium,"5 mg fasted, 24 h",4.14 (0.23) mmol L^–1
same,Sodium,"5 mg fasted, 24 h",136.3 (0.8) mmol L^–1
same,Urea,"5 mg fasted, 24 h",4.66 (0.90) mmol L^–1
same,ALP,"5 mg fasted, 48 h",0.989 (0.186) µkat L^–1
same,ALT,"5 mg fasted, 48 h",0.405 (0.142) µkat L^–1
same,AST,"5 mg fasted, 48 h",0.357 (0.077) µkat L^–1
same,Albumin,"5 mg fasted, 48 h",43.3 (2.1) g L^–1
same,Bilirubin,"5 mg fasted, 48 h",10.6 (2.3) µmol L^–1
same,CRP,"5 mg fasted, 48 h",0.48 (0.40) mg L^–1
same,Calcium,"5 mg fasted, 48 h",2.38 (0.04) mmol L^–1
same,Creatinine,"5 mg fasted, 48 h",80.9 (4.7) µmol L^–1
same,GGT,"5 mg fasted, 48 h",0.287 (0.105) µkat L^–1
same,Glucose,"5 mg fasted, 48 h",4.76 (0.32) mmol L^–1
same,Phosphate,"5 mg fasted, 48 h",0.99 (0.12) mmol L^–1
same,Potassium,"5 mg fasted, 48 h",4.23 (0.16) mmol L^–1
same,Sodium,"5 mg fasted, 48 h",137.5 (0.6) mmol L^–1
same,Urea,"5 mg fasted, 48 h",4.52 (1.08) mmol L^–1
same,ALP,"5 mg fasted, follow up",1.094 (0.227) µkat L^–1
same,ALT,"5 mg fasted, follow up",0.407 (0.063) µkat L^–1
same,AST,"5 mg fasted, follow up",0.413 (0.097) µkat L^–1
same,Albumin,"5 mg fasted, follow up",45.3 (1.3) g L^–1
same,Bilirubin,"5 mg fasted, follow up",12.5 (3.3) µmol L^–1
same,CRP,"5 mg fasted, follow up",1.27 (1.43) mg L^–1
same,Calcium,"5 mg fasted, follow up",2.42 (0.04) mmol L^–1
same,Creatinine,"5 mg fasted, follow up",84.8 (9.1) µmol L^–1
same,GFR,"5 mg fasted, follow up",98 (15) mL min^–1 1.73m^–2
same,GGT,"5 mg fasted, follow up",0.307 (0.093) µkat L^–1
same,Glucose,"5 mg fasted, follow up",4.78 (0.68) mmol L^–1
same,Phosphate,"5 mg fasted, follow up",1.11 (0.10) mmol L^–1
same,Potassium,"5 mg fasted, follow up",4.32 (0.22) mmol L^–1
same,Sodium,"5 mg fasted, follow up",138.4 (1.5) mmol L^–1
same,Urea,"5 mg fasted, follow up",4.57 (1.29) mmol L^–1
same,ALP,"15 mg fasted, 24 h",1.165 (0.364) µkat L^–1
same,ALT,"15 mg fasted, 24 h",0.475 (0.222) µkat L^–1
same,AST,"15 mg fasted, 24 h",0.394 (0.098) µkat L^–1
same,Albumin,"15 mg fasted, 24 h",43.2 (2.7) g L^–1
same,Bilirubin,"15 mg fasted, 24 h",14.5 (6.3) µmol L^–1
same,CRP,"15 mg fasted, 24 h",0.53 (0.28) mg L^–1
same,Calcium,"15 mg fasted, 24 h",2.35 (0.11) mmol L^–1
same,Creatinine,"15 mg fasted, 24 h",76.2 (10.7) µmol L^–1
same,GGT,"15 mg fasted, 24 h",0.504 (0.232) µkat L^–1
same,Glucose,"15 mg fasted, 24 h",4.57 (0.21) mmol L^–1
same,Phosphate,"15 mg fasted, 24 h",1.14 (0.14) mmol L^–1
same,Potassium,"15 mg fasted, 24 h",4.12 (0.24) mmol L^–1
same,Sodium,"15 mg fasted, 24 h",137.5 (1.0) mmol L^–1
same,Urea,"15 mg fasted, 24 h",4.35 (0.61) mmol L^–1
same,ALP,"15 mg fasted, 48 h",1.159 (0.329) µkat L^–1
same,ALT,"15 mg fasted, 48 h",0.515 (0.255) µkat L^–1
same,AST,"15 mg fasted, 48 h",0.406 (0.116) µkat L^–1
same,Albumin,"15 mg fasted, 48 h",44.2 (2.6) g L^–1
same,Bilirubin,"15 mg fasted, 48 h",13.6 (6.0) µmol L^–1
same,CRP,"15 mg fasted, 48 h",0.62 (0.40) mg L^–1
same,Calcium,"15 mg fasted, 48 h",2.37 (0.10) mmol L^–1
same,Creatinine,"15 mg fasted, 48 h",75.9 (12.3) µmol L^–1
same,GGT,"15 mg fasted, 48 h",0.501 (0.243) µkat L^–1
same,Glucose,"15 mg fasted, 48 h",4.72 (0.23) mmol L^–1
same,Phosphate,"15 mg fasted, 48 h",1.11 (0.16) mmol L^–1
same,Potassium,"15 mg fasted, 48 h",4.23 (0.25) mmol L^–1
same,Sodium,"15 mg fasted, 48 h",138.8 (0.8) mmol L^–1
same,Urea,"15 mg fasted, 48 h",4.30 (0.74) mmol L^–1
same,ALP,"15 mg fasted, follow up",1.240 (0.380) µkat L^–1
same,ALT,"15 mg fasted, follow up",0.504 (0.193) µkat L^–1
same,AST,"15 mg fasted, follow up",0.420 (0.085) µkat L^–1
same,Albumin,"15 mg fasted, follow up",45.2 (3.1) g L^–1
same,Bilirubin,"15 mg fasted, follow up",11.3 (5.5) µmol L^–1
same,CRP,"15 mg fasted, follow up",1.37 (0.47) mg L^–1
same,Calcium,"15 mg fasted, follow up",2.38 (0.14) mmol L^–1
same,Creatinine,"15 mg fasted, follow up",78.4 (9.8) µmol L^–1
same,GFR,"15 mg fasted, follow up",114 (12) mL min^–1 1.73m^–2
same,GGT,"15 mg fasted, follow up",0.534 (0.262) µkat L^–1
same,Glucose,"15 mg fasted, follow up",4.62 (0.45) mmol L^–1
same,Phosphate,"15 mg fasted, follow up",1.15 (0.08) mmol L^–1
same,Potassium,"15 mg fasted, follow up",4.39 (0.30) mmol L^–1
same,Sodium,"15 mg fasted, follow up",136.9 (1.1) mmol L^–1
same,Urea,"15 mg fasted, follow up",4.79 (1.46) mmol L^–1
same,ALP,"45 mg fasted, 24 h",1.061 (0.228) µkat L^–1
same,ALT,"45 mg fasted, 24 h",0.329 (0.098) µkat L^–1
same,AST,"45 mg fasted, 24 h",0.293 (0.069) µkat L^–1
same,Albumin,"45 mg fasted, 24 h",41.6 (2.4) g L^–1
same,Bilirubin,"45 mg fasted, 24 h",12.0 (3.5) µmol L^–1
same,CRP,"45 mg fasted, 24 h",0.77 (0.71) mg L^–1
same,Calcium,"45 mg fasted, 24 h",2.34 (0.05) mmol L^–1
same,Creatinine,"45 mg fasted, 24 h",75.8 (7.2) µmol L^–1
same,GGT,"45 mg fasted, 24 h",0.315 (0.072) µkat L^–1
same,Glucose,"45 mg fasted, 24 h",4.90 (0.29) mmol L^–1
same,Phosphate,"45 mg fasted, 24 h",1.17 (0.08) mmol L^–1
same,Potassium,"45 mg fasted, 24 h",4.29 (0.10) mmol L^–1
same,Sodium,"45 mg fasted, 24 h",139.2 (1.7) mmol L^–1
same,Urea,"45 mg fasted, 24 h",4.25 (0.47) mmol L^–1
same,ALP,"45 mg fasted, 48 h",1.097 (0.257) µkat L^–1
same,ALT,"45 mg fasted, 48 h",0.319 (0.095) µkat L^–1
same,AST,"45 mg fasted, 48 h",0.288 (0.074) µkat L^–1
same,Albumin,"45 mg fasted, 48 h",42.5 (2.7) g L^–1
same,Bilirubin,"45 mg fasted, 48 h",12.3 (3.3) µmol L^–1
same,CRP,"45 mg fasted, 48 h",0.58 (0.49) mg L^–1
same,Calcium,"45 mg fasted, 48 h",2.34 (0.05) mmol L^–1
same,Creatinine,"45 mg fasted, 48 h",73.2 (6.4) µmol L^–1
same,GGT,"45 mg fasted, 48 h",0.312 (0.064) µkat L^–1
same,Glucose,"45 mg fasted, 48 h",5.06 (0.19) mmol L^–1
same,Phosphate,"45 mg fasted, 48 h",1.12 (0.09) mmol L^–1
same,Potassium,"45 mg fasted, 48 h",4.18 (0.20) mmol L^–1
same,Sodium,"45 mg fasted, 48 h",140.9 (2.2) mmol L^–1
same,Urea,"45 mg fasted, 48 h",4.24 (0.55) mmol L^–1
same,ALP,"45 mg fasted, follow up",1.165 (0.282) µkat L^–1
same,ALT,"45 mg fasted, follow up",0.324 (0.059) µkat L^–1
same,AST,"45 mg fasted, follow up",0.356 (0.054) µkat L^–1
same,Albumin,"45 mg fasted, follow up",44.1 (2.6) g L^–1
same,Bilirubin,"45 mg fasted, follow up",12.9 (5.6) µmol L^–1
same,CRP,"45 mg fasted, follow up",2.89 (5.30) mg L^–1
same,Calcium,"45 mg fasted, follow up",2.35 (0.04) mmol L^–1
same,Creatinine,"45 mg fasted, follow up",74.6 (9.2) µmol L^–1
same,GFR,"45 mg fasted, follow up",112 (12) mL min^–1 1.73m^–2
same,GGT,"45 mg fasted, follow up",0.300 (0.052) µkat L^–1
same,Glucose,"45 mg fasted, follow up",4.84 (0.54) mmol L^–1
same,Phosphate,"45 mg fasted, follow up",1.12 (0.20) mmol L^–1
same,Potassium,"45 mg fasted, follow up",4.18 (0.18) mmol L^–1
same,Sodium,"45 mg fasted, follow up",139.5 (1.3) mmol L^–1
same,Urea,"45 mg fasted, follow up",3.90 (0.63) mmol L^–1
